In patent US7470807B2, “Substituted arylalkanoic acid derivatives and use thereof” (Asahi Kasei Pharma Corporation, priority 2003, dated 2008):

Legend:
[1] = system: bleomycin-induced pulmonary fibrosis; test: Bleomycin-induced rat pulmonary fibrosis model; type: in vivo; details: for median of the fibrosing score: bleomycin intratracheal, oral 10, 30, 100 and 300 mg/kg once or twice a day for 21 days, positive control ++ to +++; for fibrosing in groups administered with known type 4 PLA2 inhibitory compounds: bleomycin model, intraperitoneally or orally administered in a similar manner
Method: A suppressing effect on pulmonary fibrosing in a bleomycin-induced rat pulmonary fibrosis model, which is a pathological model of pulmonary fibrosis, was studied by the following method. Groups of BN female rats (7-week old) each consisting of seven rats were used for the test. The test animals were anesthetized with ketamine and xylazine, and the tracheae were exposed. Then, a 125 μg/0.1 ml solution of bleomycin (Nippon Kayaku) dissolved in physiological saline (Ohtsuka Pharmaceutical Factory) was injected into the tracheae by using a syringe. The negative control group was administered with 0.1 ml of saline into the tracheae.
Each test compound was suspended or dissolved in purified water containing 0.5% methylcellulose, and orally administered to the test animals at doses of 10, 30, 100 and 300 mg/5 ml/kg. The administration of the test compounds was started from the day of the bleomycin administration and performed once or twice a day for 21 days. The positive control group was administered with purified water containing 0.5% methylcellulose not added with any test compound in a similar manner. On the 21st day after the administration of bleomycin, the rats were sacrificed, and lungs were fixed with neutral buffered formalin to prepare histopathological samples. Staining of the histopathological samples was performed by the Azan method.
The histopathological samples of lungs were examined, and degree of fibrosing was represented with the following scores on the basis of formation of granulation tissues and proliferation of collagen fibers as indicators, i.e., −: no abnormality, ±: extremely mild change, +: mild change, ++: moderate change, and +++: significant change.

pulmonary fibrosis = details: clinical tests in the United States and Japan; cited from earlier work

In the case of “3-[4-cyclopentyloxy-3-(1H-indole-5-yl)phenyl]propionic acid [G-4]”, the “median of the fibrosing score” value [1] is reported as “± to +”.

With “3-[4-cyclopentyloxy-3-(naphthalen-2-yl)phenyl]propionic acid [G-2]” the “median of the fibrosing score” value [1] was “± to +”.

With `COc1cc(C(=O)O)ccc1Cc1cn(C(c2ccccc2)c2ccccc2)c2cc(Cl)ccc12` [4-(1-benzhydryl-6-chloro-1H-indol-3-ylmethyl)-3-methoxybenzoic acid, reference compound] the “fibrosing in groups administered with known type 4 PLA2 inhibitory compounds” value [1] was “mild”.

In the case of `O=C(CCc1ccc(OCCS(=O)(=O)CCOC(c2ccc(Cl)cc2)c2ccc(Cl)cc2)cc1)C(F)(F)F` [4-{4-[2-(2-[bis(4-chlorophenyl)methoxy]ethylsulfonyl)ethoxy]phenyl}-1,1,1-trifluoro-2-butanone], the “fibrosing in groups administered with known type 4 PLA2 inhibitory compounds” value [1] is reported as “mild”.

In the case of `O=C1NC(=O)C(=Cc2ccc(C(=O)NCC3CC(SC(c4ccccc4)(c4ccccc4)c4ccccc4)CN3C(=O)c3ccccc3C(=O)c3ccc(F)cc3F)cc2)S1` (stereo not drawn) [N-{1-[2-(2,4-difluorobenzoyl)benzoyl]-4-tritylsulfanylpyrrolidin-2-ylmethyl}-4-(2,4-dioxothiazolidin-5-ylidenemethyl)benzoic acid amide], the “fibrosing in groups administered with known type 4 PLA2 inhibitory compounds” value [1] is reported as “mild”.

In the case of `Cc1ccc(=O)n(-c2ccccc2)c1` [pirfenidone], the “effect against pulmonary fibrosis in clinical tests” value (pulmonary fibrosis) is given as “effective”.
